In patent publication US20250129073A1, “INHIBITOR OF RECEPTOR-INTERACTING PROTEIN KINASE 1, AND PREPARATION METHOD AND USE THEREFOR” (CHINA PHARMACEUTICAL UNIVERSITY, priority 2021, published 2025):

How the values were obtained:
RIPK1 kinase = RIPK1 kinase (Homo sapiens (Human), UniProt Q13546); assay: RIPK1 kinase inhibitory assay (ADP-Glo); format: biochemical; conditions: for inhibition at 10 µM: 10 μM compound, read-out: Inhibition rate of RIPK1 at 10 μM (%)
Method: Materials and Instruments: ADP-Glo kinase kit (purchased from Promega), RIPK1 GST-Th-Tag (purchased from Bps Bioscience), MBP substrate (purchased from Millipore), nunc 384-well plate, ATP fluorescence analyzer Paradigm detection platform (purchased from Beckman coulter)
The compounds were diluted in DMSO and configured into a solution with a final concentration of 10 mM; Dilute RIP1 kinase from 140 ng/μL to 20 ng/μL for use. Dilute 10 mM of ATP to 100 μM for later use; Dilute 5 mg/mL of MBP to 1 mg/mL for later use. Appropriate embodiments were added into the well of the 384-well plate, 10 μl […] ATP was evenly mixed with 1 μl 1 mg/mL MB P, the mixed solution was added to the well, and 2 μL […] RIP1 kinase was added to the hole, and then incubated at room temperature for 1 h. Subsequently, 5 μL ADP-Glo reagent was added to each well and incubated at room temperature for 40 min. Then, 10 μL ADP-Glo detection reagent was added to each well and incubated at room temperature for 30 min. Finally, the RLU value (relative light unit) of each well was measured by ATP fluorometer, and each sample was repeated twice. Inhibition rate=(RLU value of blank group−RLU value of drug administration group)/RLU value of blank group×100%.

U937 cells = assay: Cell anti-necroptosis activity assay (LPS + Z-VAD-FMK, CCK8); format: cell-based; conditions: Homo sapiens, U-937; PMA-differentiated U937, LPS 100 ng/ml + Z-VAD-FMK 20 μM, 24 h; read-out: EC50 of inhibition of necroptosis
Method: Materials: U937 cell line (human myeloid leukemia cells), RPMI 1640 medium (purchased from Gibco, USA), penicillin-streptomycin double antibody (purchased from Gibco, USA), fetal bovine serum (purchased from genetic, USA), tetradecanoylphorbol acetate (purchased from biyuntian Biotechnology Co., Ltd.), CCK8 cell proliferation detection kit (purchased from biyuntian Biotechnology Co., Ltd), Z-VAD-FMK (from APExBIO, USA) and LPS (from Sigma, USA).
U937 cells were cultured in RPMI 1640 containing 10% heat inactivated fetal bovine serum and 1% penicillin-streptomycin in a constant temperature cell incubator at 37° C. and 5% CO2, and subcultured every 1-2 days. Human monocytic cell line U937 cells could be induced to differentiate into mature monocytes/macrophages after stimulation with tetradecanoylphorbol acetate (PMA). The cells in the logarithmic growth phase were seeded in 96 well plates at a density of 4×10^4 cells/well and cultured. PMA 100 ng/ml was added for 24 h, and then the fresh medium was changed. The necroptosis model was constructed by stimulation of LPS and caspase inhibitor Z-VAD-FMK. In the experimental groups, LPS (100 ng/ml) was added for 1 hour, and then the solvent control (DMSO) or different concentrations of compounds to be tested (30 μM, 10 μM, 3 μM, 1 μM, 300 nM, 100 nM, 30 nM 7 concentrations in total) for 1 h, and then the experimental groups were treated with caspase inhibitor Z-VAD-FMK (20 μM). The cell viability was detected after 24 h of culture. The control groups were not treated with LPS, drugs and Z-VAD-FMK. No cells were added to the blank hole, only the culture medium. Each group is set with 4 parallel. CCK8 cell proliferation assay kit was used to detect the cell viability and survival rate, and the operation was carried out according to the kit instructions. The cell supernatant was added with 10 μL CCK8 detection reagent, and the cell absorbance (450 nm) was detected by a microplate reader after 0.5 h. Calculate the cell death rate (%)=(average absorbance of control well−average absorbance of experimental group)/(average absorbance of control well−average absorbance of the blank well)×100. Finally, the half effective concentration (EC50) of the drug was calculated by GraphPad Prism 7.0® software.

RIPK1 kinase, sequence (Q13546 whole entry): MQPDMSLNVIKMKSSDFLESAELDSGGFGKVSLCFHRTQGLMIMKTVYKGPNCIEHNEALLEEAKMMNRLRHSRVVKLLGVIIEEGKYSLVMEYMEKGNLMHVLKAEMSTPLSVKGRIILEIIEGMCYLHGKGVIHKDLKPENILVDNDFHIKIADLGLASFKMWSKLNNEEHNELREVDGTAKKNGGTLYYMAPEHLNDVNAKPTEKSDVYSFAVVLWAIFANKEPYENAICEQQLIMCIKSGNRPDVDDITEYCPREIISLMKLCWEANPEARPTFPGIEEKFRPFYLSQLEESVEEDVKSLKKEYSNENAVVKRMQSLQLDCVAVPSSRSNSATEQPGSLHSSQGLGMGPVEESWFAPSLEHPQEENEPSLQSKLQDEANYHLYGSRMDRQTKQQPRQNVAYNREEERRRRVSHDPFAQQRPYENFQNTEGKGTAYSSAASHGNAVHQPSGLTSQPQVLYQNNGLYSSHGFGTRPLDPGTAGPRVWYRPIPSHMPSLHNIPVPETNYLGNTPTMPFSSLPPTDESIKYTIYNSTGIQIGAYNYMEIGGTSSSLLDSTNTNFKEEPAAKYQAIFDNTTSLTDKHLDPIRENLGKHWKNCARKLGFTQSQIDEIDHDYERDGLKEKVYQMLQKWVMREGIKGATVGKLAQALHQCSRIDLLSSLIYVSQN

Which results are given for `O=C(c1ccc2cc[nH]c2c1)N1CCC2(CC1)CCN(Cc1cc(F)ccc1F)C2=O` [Compound 46, 2-(2,5-difluorobenzyl)-8-(1H-indole-6-carbonyl)-2,8-diazaspiro[4.5]decan-1-one]?
IC50 (RIPK1 kinase): 624 nM; inhibition at 10 µM (RIPK1 kinase): > 50%; EC50 (U937 cells): 1200 nM

With `O=C(c1ccccc1)N1CCC2(CC1)CCN(Cc1cc(F)ccc1F)C2=O` [Compound 34, 8-benzoyl-2-(2,5-difluorobenzyl)-2,8-diazaspiro[4.5]decan-1-one] as the compound, how does the IC50 (RIPK1 kinase) read?
The IC50 was 693 nM.

What about the inhibition at 10 µM (RIPK1 kinase) of the same compound?
Its inhibition at 10 µM is > 50%.

What about the EC50 (U937 cells) of the same compound?
Its EC50 is 1340 nM.

With `Cn1ccc2ccc(C(=O)N3CCC4(CC3)CCN(Cc3cc(F)ccc3F)C4=O)cc21` [Compound 49, 2-(2,5-difluorobenzyl)-8-(1-methyl-1H-indole-6-carbonyl)-2,8-diazaspiro[4.5]decan-1-one] as the compound, how does the IC50 (RIPK1 kinase) read?
The IC50 was 92 nM.

What about the inhibition at 10 µM (RIPK1 kinase) of the same compound?
The inhibition at 10 µM was > 50%.

What about the EC50 (U937 cells) of the same compound?
The EC50 was 1110 nM.

With `O=C(c1ccc2cc[nH]c2c1)N1CCC2(CC1)CCN(Cc1ccccc1F)C2=O` [Compound 44, 2-(2-fluorobenzyl)-8-(1H-indole-6-carbonyl)-2,8-diazaspiro[4.5]decan-1-one] as the compound, how does the IC50 (RIPK1 kinase) read?
Its IC50 is 186 nM.

What about the inhibition at 10 µM (RIPK1 kinase) of the same compound?
Its inhibition at 10 µM is > 50%.

And the EC50 (U937 cells)?
The EC50 was 161 nM.

Which inhibition at 10 µM (RIPK1 kinase) does the source give for `O=C1N(Cc2ccccc2)CCC12CCN(c1ncccn1)CC2` [Compound 36, 2-benzyl-8-(pyrimidin-2-yl)-2,8-diazaspiro[4.5]decan-1-one] here?
The inhibition at 10 µM was > 50%.

How did the inhibition at 10 µM (RIPK1 kinase) turn out when `O=C(c1ccccc1)N1CCC2(C=NN(Cc3cc(F)cc(F)c3)C2=O)CC1` [Compound 67, 8-benzoyl-2-(3,5-difluorobenzyl)-2,3,8-triazaspiro[4.5]dec-3-en-1-one] was run?
Its inhibition at 10 µM is > 50%.

How did the inhibition at 10 µM (RIPK1 kinase) turn out when `O=C(c1ccccc1)N1CCC2(CC1)CCN(Cc1c(F)cccc1F)C2=O` [Compound 37, 8-benzoyl-2-(2,6-difluorobenzyl)-2,8-diazaspiro[4.5]decan-1-one] was run?
The inhibition at 10 µM was > 50%.

With `O=C(c1ccncc1)N1CCC2(CC1)CCN(Cc1ccccc1)C2=O` [Compound 16, 2-benzyl-8-isonicotinoyl-2,8-diazaspiro[4.5]decan-1-one] as the compound, how does the inhibition at 10 µM (RIPK1 kinase) read?
Its inhibition at 10 µM is > 50%.

How did the inhibition at 10 µM (RIPK1 kinase) turn out when `Cn1ccc2cc(C(=O)N3CCC4(CC3)CCN(Cc3ccccc3)C4=O)ccc21` [Compound 28, 2-benzyl-8-(1-methyl-1H-indole-5-carbonyl)-2,8-diazaspiro[4.5]decan-1-one] was run?
Its inhibition at 10 µM is 3%.

`Cn1cnc2ccc(C(=O)N3CCC4(CC3)CCN(Cc3ccccc3)C4=O)cc21` [Compound 26, 2-benzyl-8-(1-methyl-1H-benzo[d]imidazole-6-carbonyl)-2,8-diazaspiro[4.5]decan-1-one] was tested. Which inhibition at 10 µM (RIPK1 kinase) did it give?
Its inhibition at 10 µM is 14%.

With `O=C(c1ccccc1)N1CCC2(C=NN(Cc3ccc(F)cc3)C2=O)CC1` [Compound 65, 8-benzoyl-2-(4-fluorobenzyl)-2,3,8-triazaspiro[4.5]dec-3-en-1-one] as the compound, how does the inhibition at 10 µM (RIPK1 kinase) read?
The inhibition at 10 µM was 27%.

How did the inhibition at 10 µM (RIPK1 kinase) turn out when `N#Cc1ccccc1CN1CCC2(CCN(C(=O)c3ccccc3)CC2)C1=O` [Compound 54, 2-((8-benzoyl-1-oxo-2,8-diazaspiro[4.5]decan-2-yl)methyl) benzonitrile] was run?
The inhibition at 10 µM was 6%.

Which inhibition at 10 µM (RIPK1 kinase) does the source give for `O=C(c1ccccc1)N1CCC2(CC1)CCN(Cc1cccc(F)c1F)C2=O` [Compound 40, 8-benzoyl-2-(2,3-difluorobenzyl)-2,8-diazaspiro[4.5]decan-1-one] here?
Its inhibition at 10 µM is > 50%.

With `CN1C(=O)N(Cc2cccnc2)C(=O)C12CCN(C(=O)c1ccccc1)CC2` [Compound 5, 8-benzoyl-1-methyl-3-(pyridin-3-ylmethyl)-1,3,8-triazaspiro [4.5]decane-2,4-dione] as the compound, how does the inhibition at 10 µM (RIPK1 kinase) read?
The inhibition at 10 µM was 20%.

`O=C(c1ccccc1)N1CCC2(C=NN(Cc3cccc(C(F)(F)F)c3)C2=O)CC1` [Compound 68, 8-benzoyl-2-(3-(trifluoromethyl)benzyl)-2,3,8-triazaspiro[4.5]dec-3-en-1-one] was tested. Which inhibition at 10 µM (RIPK1 kinase) did it give?
Its inhibition at 10 µM is 13%.

Which inhibition at 10 µM (RIPK1 kinase) does the source give for `O=C(c1ccc2ccoc2c1)N1CCC2(CC1)CCN(Cc1cc(F)ccc1F)C2=O` [Compound 76, 8-(benzofuran-6-carbonyl)-2-(2,5-difluorobenzyl)-2,8-diazaspiro [4.5]decan-1-one] here?
The inhibition at 10 µM was > 50%.

Which inhibition at 10 µM (RIPK1 kinase) does the source give for `O=C(c1ccccc1)N1CCC2(CC1)CCN(Cc1cc(Cl)ccc1F)C2=O` [Compound 47, 8-benzoyl-2-(5-chloro-2-fluorobenzyl)-2,8-diazaspiro[4.5]decan-1-one] here?
The inhibition at 10 µM was > 50%.

How did the inhibition at 10 µM (RIPK1 kinase) turn out when `O=C(c1ccccc1)N1CCC2(CC1)CCN(Cc1cccc(Cl)c1)C2=O` [Compound 10, 8-benzoyl-2-(3-chlorobenzyl)-2,8-diazaspiro[4.5]decan-1-one] was run?
Its inhibition at 10 µM is > 50%.

`O=C(c1ccccc1)N1CCC2(CC1)CCN(Cc1ccc(F)cc1)C2=O` [Compound 33, 8-benzoyl-2-(4-fluorobenzyl)-2,8-diazaspiro[4.5]decan-1-one] was tested. Which inhibition at 10 µM (RIPK1 kinase) did it give?
The inhibition at 10 µM was > 50%.

How did the inhibition at 10 µM (RIPK1 kinase) turn out when `N#Cc1ccc(CN2N=CC3(CCN(C(=O)c4ccccc4)CC3)C2=O)cc1` [Compound 69, 4-((8-benzoyl-1-oxo-2,3,8-triazaspiro[4.5]dec-3-en-2-yl)methyl) benzonitrile] was run?
The inhibition at 10 µM was 9%.

With `O=C(c1ccccc1)N1CCC2(CC1)CCN(Cc1ccc(Cl)cc1F)C2=O` [Compound 39, 8-benzoyl-2-(4-chloro-2-fluorobenzyl)-2,8-diazaspiro[4.5]decan-1-one] as the compound, how does the inhibition at 10 µM (RIPK1 kinase) read?
Its inhibition at 10 µM is > 50%.

Which inhibition at 10 µM (RIPK1 kinase) does the source give for `CC(C)N1CCC2(CCN(Cc3ccccc3)C2=O)CC1` [Compound 22, 2-benzyl-8-isopropyl-2,8-diazaspiro[4.5]decan-1-one] here?
The inhibition at 10 µM was 8%.

Which inhibition at 10 µM (RIPK1 kinase) does the source give for `CN1C(=O)N(Cc2cccc(Cl)c2)C(=O)C12CCN(C(=O)c1ccccc1)CC2` [Compound 3, 8-benzoyl-3-(3-chlorobenzyl)-1-methyl-1,3,8-triazaspiro[4.5]decane-2,4-dione] here?
The inhibition at 10 µM was 11%.

For `O=C(c1cnco1)N1CCC2(CC1)CCN(Cc1ccccc1)C2=O` [Compound 18, 2-benzyl-8-(oxazole-5-carbonyl)-2,8-diazaspiro[4.5]decan-1-one], which inhibition at 10 µM (RIPK1 kinase) is on record?
The inhibition at 10 µM was > 50%.

For `N#Cc1ccc(CN2CCC3(CCN(C(=O)c4ccccc4)CC3)C2=O)c(F)c1` [Compound 48, 4-((8-benzoyl-1-oxo-2,8-diazaspiro[4.5]decan-2-yl)methyl)-3-fluorobenzonitrile], which inhibition at 10 µM (RIPK1 kinase) is on record?
The inhibition at 10 µM was 8%.

`CN1C(=O)N(Cc2ccccn2)C(=O)C12CCN(C(=O)c1ccccc1)CC2` [Compound 6, 8-benzoyl-1-methyl-3-(pyridin-2-ylmethyl)-1,3,8-triazaspiro [4.5]decane-2,4-dione] was tested. Which inhibition at 10 µM (RIPK1 kinase) did it give?
The inhibition at 10 µM was 4%.

How did the inhibition at 10 µM (RIPK1 kinase) turn out when `O=C(c1ccccc1)N1CCC2(C=NN(Cc3ccccc3)C2=O)CC1` [Compound 62, 8-benzoyl-2-benzyl-2,3,8-triazaspiro[4.5]dec-3-en-1-one] was run?
Its inhibition at 10 µM is > 50%.

With `O=C(c1cnco1)N1CCC2(CC1)CCN(Cc1cc(F)ccc1F)C2=O` [Compound 42, 2-(2,5-difluorobenzyl)-8-(oxazole-5-carbonyl)-2,8-diazaspiro[4.5]decan-1-one] as the compound, how does the IC50 (RIPK1 kinase) read?
Its IC50 is 1040 nM.

What about the inhibition at 10 µM (RIPK1 kinase) of the same compound?
Its inhibition at 10 µM is > 50%.

What about the EC50 (U937 cells) of the same compound?
Its EC50 is 1650 nM.

For `O=C1N(Cc2ccccc2)CCC12CCN(Cc1ccccc1)CC2` [Compound 19, 2,8-dibenzyl-2,8-diazaspiro[4.5]decan-1-one], which inhibition at 10 µM (RIPK1 kinase) is on record?
The inhibition at 10 µM was 16%.

Which inhibition at 10 µM (RIPK1 kinase) does the source give for `O=C(c1ccccc1)N1CCC2(CC1)CCN(Cc1cccnc1)C2=O` [Compound 13, 8-benzoyl-2-(pyridin-3-ylmethyl)-2,8-diazaspiro[4.5]decan-1-one] here?
The inhibition at 10 µM was > 50%.

For `O=C(c1ccccc1)N1CCC2(CC1)N=CN(Cc1ccccc1)C2=O` [Compound 59, 8-benzoyl-3-benzyl-1,3,8-triazaspiro[4.5]dec-1-en-4-one], which inhibition at 10 µM (RIPK1 kinase) is on record?
Its inhibition at 10 µM is 38%.

Which inhibition at 10 µM (RIPK1 kinase) does the source give for `O=C(c1ccccc1)N1CCC2(CC1)CNN(Cc1ccccc1F)C2=O` [Compound 72, 8-benzoyl-2-(2-fluorobenzyl)-2,3,8-triazaspiro[4.5]decan-1-one] here?
Its inhibition at 10 µM is 40%.

How did the inhibition at 10 µM (RIPK1 kinase) turn out when `O=C(c1ccccc1)N1CCC2(CC1)CCN(Cc1c(F)cccc1Cl)C2=O` [Compound 45, 8-benzoyl-2-(2-chloro-6-fluorobenzyl)-2,8-diazaspiro[4.5]decan-1-one] was run?
The inhibition at 10 µM was 43%.
